According to patent publication US7074765B2, “Synthetic peptide analogs of Arg-Pro-Pro-Gly-Phe as selective inhibitors of thrombin and thrombin activation of protease activated receptors 1 and 4” (The Regents of the University of Michigan, priority 2003, dated 2006):

Tests used:
[1] = system: normal human citrated plasma; experiment: activated partial thromboplastin time (APTT); type: biochemical; conditions: normal human plasma; p<0.05
Description: (§1) The influence of the various peptide formulations used in the present invention on established coagulation-based assays was determined. The activated partial thromboplastin time (APTT) is performed by mixing 0.05 ml normal human citrated plasma with 0.05 ml activated partial thromboplastin reagent purchased from Organon Teknika, Research Triangle Park, N.C. in the absence or presence of a peptide inhibitor. After incubation for 5 min at 37° C., the mixture is recalcified with 0.05 ml of 30 mM calcium chloride and the time to clot formation is measured in an Amelung KC4A instrument (Sigma Chemical Corp, St. Louis, Mo.) (Hasan et al. Thrombosis and Haemostasis. 82, 1182–1187 (1999)). The prothrombin time (PT) is performed by mixing 0.05 ml normal human citrated plasma with 0.05 ml Simplastin (Organon Teknika, Research Triangle Park, N.C.) followed by incubation for 3 min at 37° C. in the absence or presence of a peptide inhibitor. At the addition of 0.05 ml of 30 mM calcium chloride, the time to clot formation is measured in an KC4A instrument (Sigma Chemical Corp, St. Louis, Mo.) (Hasan et al. Thrombosis and Haemostasis. 82, 1182–1187 (1999)). The thrombin clotting time (TCT) is performed by adding 0.1 ml normal human citrated plasma in the absence or presence of a peptide inhibitor and 0.05 ml of a α-thrombin solution such that the final concentration of the thrombin in the entire mixture was 1 nM. Upon addition of the thrombin, the time to clot formation is measured in an KC4A instrument (Sigma Chemical Corp, St. Louis, Mo.). In FIG. 5, peptide TH146 produces a significant prolongation (p<0.05) of the activated partial thromboplastin time at 15 μM, of the prothrombin time at 60 μM, and the thrombin clotting time at 15 μM. In FIG. 6, peptide MAP4-TH146 produced a significant prolongation (p<0.05) of the activated partial thromboplastin time at 0.195 μM, of the prothrombin time at 3.125 μM, and the thrombin clotting time at 0.39 μM.

[2] = system: normal human citrated plasma; experiment: prothrombin time (PT); type: biochemical; conditions: normal human plasma; p<0.05
Description: as §1

[3] = system: normal human citrated plasma; experiment: thrombin clotting time (TCT); type: biochemical; conditions: normal human plasma; p<0.05
Description: as §1

[4] = target: T1, recombinant protease activated receptor 1 extracellular domain (rPAR1EC) (Homo sapiens, UniProt P25116); experiment: Inhibition of RPPGF-biotin binding to rPAR1EC; conditions: 5 mM peptide, 50 μM RPPGF-biotin (FIG. 7); listed in decreasing order
T1 construct: A portion of the extracellular domain of human PAR1 (Ala^26-Ser^99) (rPAR1EC) was expressed in Escherichia coli; His10-DDDDK (pET19b) (N); made in house; host or cells: E. coli BL21(DE3), pET19b
T1 sequence (P25116 26-99): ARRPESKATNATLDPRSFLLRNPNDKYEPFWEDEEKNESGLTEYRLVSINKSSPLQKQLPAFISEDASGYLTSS

[5] = target: T2, α-thrombin cleavage of recombinant extracellular fragment of human PAR1 (rPAR1EC) (Homo sapiens, UniProt P00734); experiment: Inhibition of α-thrombin-induced cleavage of rPAR1EC; type: biochemical; conditions: 1 nM α-thrombin, 15 min, 37° C.
T2 construct: A portion of the extracellular domain of human PAR1 (Ala^26-Ser^99) (rPAR1EC) was expressed in Escherichia coli; with 1 nM of α-thrombin or 0.5 μg/mL thrombocytin (16.7 nM); His10-DDDDK (pET19b) (N); made in house; host or cells: E. coli BL21(DE3), pET19b (rPAR1EC)
Description: Thrombocytin is a snake venom enzyme that activates platelets by cleaving PAR1 at the thrombin cleavage site (Santos et al., FEBS Letters. 18, 3570–3577 (2000)). […] The ability of MAP4-rOicPGF to block thrombocytin cleavage of rPAR1EC was performed as follows. One μg of rPAR1EC in 0.01 mM Tris-HCL, 0.2 M NaCl, pH 8.0 was incubated at 37° C. for 15 min or 45 min with 1 nM of α-thrombin or 0.5 μg/mL thrombocytin (16.7 nM), respectively, in the absence or presence of 0.025 to 1 mM MAP4-rOicPGF. The reaction mixture was separated on SDS-PAGE and stained with Coomassie Brilliant Blue. The cleaved gel images were scanned using the software Scion Image, ScionCorp, Frederick, Md.

α-thrombin = α-thrombin (Homo sapiens, UniProt P00734); experiment: α-thrombin hydrolysis of chromogenic substrate Sar-Pro-Arg-pNA; type: biochemical; conditions: 1 nM α-thrombin; 0–0.5 mM peptide
Description: FIG. 10 examines the ability of MAP4-TH146 (β-Ala-Lys-2Lys-4(D-Arg-Oic-Pro-Gly-Phe)) to block thrombin or thrombocytin-induced proteolysis of recombinant extracellular fragment of human PAR1 (rPAR1EC). In the upper Panels, 1 μg of rPAR1EC in 10 mM Tris-HCI, 200 mM NaCl, pH 8.0 was incubated at 37° C. for 15 min or 45 min with 1 nM α-thrombin or 0.5 μg/ml (16.7 nM) thrombocytin, respectively, in the absence or presence of increasing concentrations of MAP4-TH146 (0.05 to 1.0 mM)). In the middle Panel, the ability of α-thrombin (1 nM) to hydrolyze the chromogenic substrate Sar-Pro-Arg-pNA in the presence or absence of 0–0.5 mM MAP4-TH146 was determined. In the bottom Panel, the ability of thrombocytin (16.7 nM) to hydrolyze 1 mM H-D-Phe-Pip-Arg-paranitroanilide (S2238) in the presence or absence of 0–1.0 mM MAP4-TH146 was determined. […] Alternatively, in the bottom Panel, MAP4-TH146 inhibits thrombocytin proteolysis of rPAR1EC at concentrations below that necessary to block the proteolytic activity of the enzyme.

VCaP cells = experiment: α-thrombin-induced intracellular calcium mobilization in VCaP cells; type: cell-based; conditions: 2 nM α-thrombin
Description: FIG. 13 examines the influence of MAP4-TH146 on thrombin-induced calcium mobilization in two prostate cancer cell lines that functionally express PAR 1. In Panel A, the influence of MAP4-TH146 on 2 nM α-thrombin-induced intracellular calcium mobilization in VCaP cells. Calcium flux is abolished by […]. At 6.25 μM MAP4-TH146, there is full recovery of thrombin-induced calcium flux. In Panel B, the influence of MAP4-TH146 on 2 nM α-thrombin-induced intracellular calcium mobilization in PC3 cells. Calcium flux is abolished by 200 μM MAP4-TH146. At 1.56 μM MAP4-TH146, calcium flux recovers.

β-Ala-Lys-2Lys-4(D-Arg-Oic-Pro-Gly-Phe) [MAP4-rOicPGF]
concentration giving significant prolongation of the APTT [1]: 0.195 µM | concentration giving significant prolongation of the PT [2]: 3.125 µM | concentration giving significant prolongation of the TCT [3]: 0.39 µM | blocking of RPPGF-biotin binding to rPAR1EC by peptides [4]: blocked | effect on α-thrombin cleavage of rPAR1EC [5]: inhibits thrombin and thrombocytin cleavage of rPAR1EC | effect on α-thrombin hydrolysis of Sar-Pro-Arg-pNA (α-thrombin): directly blocking α-thrombin's proteolytic activity | effect on thrombin-induced calcium flux (VCaP cells; 6.25 μM peptide): full recovery | effect on thrombin-induced calcium flux (VCaP cells; 200 (unit not given) peptide): abolished
